Values after ≈ are worked out from the molar mass of the structure shown.
Tests used:
[1] = tested on: L540cy Hodgkin lymphoma cells; experiment: In vitro cytotoxicity (CellTiter-Glo, 96 h); type: cell-based; details: for IC50, L540cy, HL: Table 14, cOKT-9 (anti-transferrin receptor) conjugate, DAR 8 (30) or 6.7 (192), 96 hours
panel of cell lines = experiment: In vitro cytotoxicity, statements across a panel of cell lines; type: cell-based; details: cOKT-9 conjugates, cell lines of Table 14
Method: (§1) In vitro assays. Cells cultured in log-phase growth were seeded for 24 h in 96-well plates containing 150 μL RPMI 1640 supplemented with 20% FBS. Serial dilutions of antibody-drug conjugates in cell culture media were prepared at 4× working concentrations; 50 μL of each dilution was added to the 96-well plates. Following addition of ADC, cells were incubated with test articles for 4 d at 37° C. After 96 h, growth inhibition was assessed by CellTiter-Glo™ (Promega, Madison, W1) and luminescence was measured on a plate reader. The IC50 value, determined in triplicate, is defined here as the concentration that results in a 50% reduction in cell growth relative to untreated controls.

HL60 AML cells = experiment: cells; type: cell-based; details: 96 hours; for IC50, HL60, AML: Table 14, cOKT-9 conjugate; for IC50: Homo sapiens, HL-60, 96 h, read-out: IC50, HL60, AML, Table 13, free drug
Method: as §1

KM-H2 HL cells = type: cell-based; details: Table 14; cOKT-9 conjugate, 96 hours
HCT-116 CRC cells = type: cell-based; details: Table 14; cOKT-9 conjugate, 96 hours
Method: as §1

L428 MDR+ HL cells = experiment: In vitro cytotoxicity (CellTiter-Glo, 96 h); type: cell-based; details: for IC50, L428, MDR+ HL: Table 14, cOKT-9 conjugate
[2] = tested on: co-culture of L540cy:U268Luc+ cells; experiment: In vitro cytotoxicity, bystander co-culture; type: cell-based; details: cAC10 conjugate obtained from compound 30; CD30+ and CD30- cells co-cultured
Method: as §1
The results of Table 2 and Table 3 indicate that potent and immunologically specific Ligand Drug Conjugates are obtained when a tubulysin is incorporated into such constructs as a quaternized drug unit and that such conjugates are active against multi-resistant cell lines. […] L540cy are CD30+ and U266 are CD30^−

HEL9217 AML cells = experiment: In vitro cytotoxicity (CellTiter-Glo, 96 h); type: cell-based; details: Homo sapiens, HEL 92.1.7, 96 h, read-out: IC50, HEL9217, MDR+ AML
786-O RCC cells = experiment: In vitro cytotoxicity (CellTiter-Glo, 96 h); type: cell-based; details: Homo sapiens, 786-0, 96 h, read-out: IC50, 786-O, MDR+ RCC
[3] = J. Med. Chem., 2009, 52, 238-240; cited from earlier work
HCT-15 cells = experiment: Intracellular drug release (LC-MS/MS, 24 hr); type: cell-based; details: Table 12, free drug @ 50 nM
Method: (§2) Intracellular drug release. TFlα, L428, and HCT-15 cells were used for the study. Cells that had been cultured under normal conditions were harvested and washed into fresh medium at ˜5×10^5 cells/mL. For each treatment condition, 5-15×10^6 cells were plated in T25 or T150 flasks. cOKT9-5023 (8-drugs/Ab) was added at 1 μg/mL to cultures and they were incubated at 37° C., 5% CO2 for 24 hr. For suspension cells, a known volume of cell culture was harvested by centrifugation (500×g, 5 min, 4° C.), and an aliquot of the medium was removed and stored for mass spectral analysis (−20° C.). For adherent cells the medium was carefully removed (an aliquot stored for mass spectral analysis) and the cells lifted with trypsin-EDTA followed by centrifugation (500×g, 5 min, 4° C.) to collect the cell pellet. For both suspension and adherent cells, the harvested cell pellets were resuspended in ice cold PBS and an aliquot was removed for enumeration and determination of average cell diameters using a Vi-Cell XR2.03 cell viability analyzer (Beckman Coulter, Fullerton, CA). The remaining cell suspensions were pelleted (500×g, 5 min) and then washed once more with 1 mL of ice cold PBS. The resulting pellets were stored at −20° C.
(§3) Untreated samples were generated using untreated cell pellets and culture medium for use in calibration curves. Untreated cell pellets were spiked with 4 μL of 25× standard analyte. Both spiked and treated cell pellets were suspended by vortexing in 400 μL of MeOH containing internal standard and placed at −20° C. for 15 min. The samples were then centrifuged at 16,000×g and the supernatants were prepared for solid phase extraction. Untreated culture medium samples (0.5 mL) were spiked with 4 μL of 25× standard. Both spiked and treated culture media were mixed with 10 μL of internal standard and prepared for solid phase extraction. Samples were subjected to solid phase extraction and the recovered drug-containing solutions were dried and reconstituted for quantification by LC-MS/MS. To derive an equation for the quantitation of released drug in the experimental unknown samples, the peak area for each drug standard was divided by the peak area obtained for the internal standard. The resultant peak area ratios were plotted as a function of the standard spiked amounts and the data points were fitted to a curve using linear regression. The peak area ratios obtained for released drug to internal standard in the experimental samples were converted to drug amounts using the derived equation.
(§4) MDR cell lines that are CD71^+ are exposed to an LDC (1 μg/mL) comprised of and antibody targeting CD71 (cOKT9) and a quaternized MDR inhibitor (Tariquidar™). The LDC composition designated as cOKT9-gluc4-T was obtained from compound 36 of Scheme 6 and predominately contains LDCs having 8 D^+ units wherein D^+ is quaternized Tariquidar. The predominate LDC of the composition, after controlled hydrolysis of the succinimide ring system is represented by the structure of: […]

L428 cells = experiment: Intracellular drug release (LC-MS/MS, 24 hr); type: cell-based; details: Table 12, free drug @ 50 nM
Method: as §2, §3, §4

TF1a cells = experiment: Intracellular drug release (LC-MS/MS, 24 hr); type: cell-based; details: Table 12
Method: as §2, §3, §4

Ramos NHL cells = experiment: In vitro cytotoxicity (CellTiter-Glo, 96 h); type: cell-based; details: Table 4
Method: as §1

RL cells = experiment: In vitro cytotoxicity (CellTiter-Glo, 96 h); type: cell-based; details: Table 4
Method: as §1

Karpas299 ALCL cells = experiment: In vitro cytotoxicity (CellTiter-Glo, 96 h); type: cell-based; details: Table 4
Method: as §1

[4] = Table 4, quaternized auristatin E ADC, 8 D+/Ab
[5] = quaternized auristatin E ADC, 8 D+/Ab, CD30-, CD19+

Molecule: CC[C@H](C)[C@H](NC(=O)[C@H]1CCCCN1C)C(=O)N(C)[C@H](C[C@@H](OC(C)=O)c1nc(C(=O)N[C@@H](Cc2ccccc2)C[C@H](C)C(=O)NNC(=O)OCc2ccc(NC(=O)[C@H](CCCNC(N)=O)NC(=O)[C@@H](NC(=O)CCCCCN3C(=O)C=CC3=O)C(C)C)cc2)cs1)C(C)C [Compound 192, 4-((S)-2-((S)-2-(6-(2,5-dioxo-2,5-dihydro-1H-pyrrol-1-yl)hexanamido)-3-methylbutanamido)-5-ureidopentanamido)benzyl 2-((2S,4R)-4-(2-((1R,3R)-1-acetoxy-3-((2S,3S)—N,3-dimethyl-2-((R)-1-methylpiperidine-2-carboxamido)pentanamido)-4-methylpentyl)thiazole-4-carboxamido)-2-methyl-5-phenylpentanoyl)hydrazinecarboxylate]
- IC50, L540cy, HL [1]: 0.117 µg/mL (≈ 0.0873 µM)
- less potent than the quaternary amine-linked TubM (30) conjugate (panel of cell lines): 1-3 logs
- IC50, HL60, AML (HL60 AML cells): 0.085 µg/mL (≈ 0.0634 µM)
- IC50, KM-H2 MDR+ HL (KM-H2 HL cells): 0.056 µg/mL (≈ 0.0418 µM)
- IC50, HCT-116, CRC (HCT-116 CRC cells): 0.302 µg/mL (≈ 0.225 µM)
- IC50, L428, MDR+ HL (L428 MDR+ HL cells; 96 hours): 0.284 µg/mL (≈ 0.212 µM)

Molecule: CC[C@H](C)[C@H](NC(=O)[C@H]1CCCC[N+]1(C)Cc1ccc(NC(=O)[C@H](C)NC(=O)[C@@H](NC(=O)CCCCCN2C(=O)C=CC2=O)C(C)C)cc1)C(=O)N(C)[C@H](C[C@@H](OC(C)=O)c1nc(C(=O)N[C@@H](Cc2ccccc2)C[C@H](C)C(=O)O)cs1)C(C)C (stereo partly drawn) [Compound 30, (2R)-2-(((2S,3S)-1-(((1R,3R)-1-acetoxy-1-(4-(((2R,4S)-4-carboxy-1-phenylpentan-2-yl)carbamoyl)thiazol-2-yl)-4-methylpentan-3-yl)(methyl)amino)-3-methyl-1-oxopentan-2-yl)carbamoyl)-1-(4-((S)-2-((S)-2-(6-(2,5-dioxo-2,5-dihydro-1H-pyrrol-1-yl)hexanamido)-3-methylbutanamido)propanamido)benzyl)-1-methylpiperidin-1-ium]
- IC50 against a co-culture of L540cy:U268Luc+ cells [2]: 0.006 µg/mL
- IC50, L540cy, HL [1]: 0.001 µg/mL
- IC50, HL60, AML (HL60 AML cells): 0.006 µg/mL
- IC50, KM-H2 MDR+ HL (KM-H2 HL cells): <0.00026 µg/mL
- IC50, HCT-116, CRC (HCT-116 CRC cells): 0.001 µg/mL
- IC50, L428, MDR+ HL (L428 MDR+ HL cells; 96 hours): 0.0004 µg/mL

Molecule: CC[C@H](C)[C@H](NC(=O)[C@H]1CCCCN1C)C(=O)N(C)[C@H](C[C@@H](OC(C)=O)c1nc(C(=O)N[C@@H](Cc2ccccc2)C[C@H](C)C(=O)O)cs1)C(C)C [Compound 26, Tubulysin M, reference compound]
- IC50 (HEL9217 AML cells): 0.4 nM
- IC50 (HL60 AML cells): 0.2 nM

Molecule: CC[C@H](C)[C@H](NC(=O)[C@H]1CCCCN1C)C(=O)N(C)[C@H](C[C@@H](OC(C)=O)c1nc(C(=O)N[C@@H](Cc2ccccc2)C[C@H](C)C(=O)NN)cs1)C(C)C [Compound 190, (1R,3R)-3-((2S,3S)—N,3-dimethyl-2-((R)-1-methylpiperidine-2-carboxamido)pentanamido)-1-(4-(((2R,4S)-5-hydrazinyl-4-methyl-5-oxo-1-phenylpentan-2-yl)carbamoyl)thiazol-2-yl)-4-methylpentyl acetate]
- IC50 (HEL9217 AML cells): 4 nM
- IC50 (786-O RCC cells): 4 nM
- IC50 (HL60 AML cells): 0.8 nM
- IC50 (L428 MDR+ HL cells; Homo sapiens, L-428, 96 h, read-out: IC50, L428, MDR+ HL, Table 13, free drug, 96 hours): 1 nM

Molecule: CC[C@H](C)[C@H](NC(=O)[C@H]1CCCCN1C)C(=O)N[C@H](C[C@@H](O)c1nc(C(=O)N[C@@H](Cc2ccccc2)C[C@H](C)C(=O)O)cs1)C(C)C [tubulysin V, Tubulysin V]
- loss of potency on deacetylation of tubulysin U [3]: > 100 fold

Molecule: COc1cc2c(cc1OC)CN(CCc1ccc(NC(=O)c3cc(OC)c(OC)cc3NC(=O)c3cnc4ccccc4c3)cc1)CC2 [Free drug, Tariquidar]
- Intracellular drug, HCT-15 (HCT-15 cells): 6.649 µM
- extracellular drug, HCT-15 (HCT-15 cells; parenthetic value): 44.3 nM
- Intracellular drug, L428 (L428 cells): 4.846 µM
- extracellular drug, L428 (L428 cells; parenthetic value): 47.0 nM
- Intracellular drug, TF1a (TF1a cells; free drug (Tariquidar) @ 50 nM): 3.575 µM
- extracellular drug, TF1a (TF1a cells; free drug @ 50 nM, parenthetic: free drug that remains outside the cell): 43.8 nM

B1: hBU12-14: "vcPAB4-AE ... obtained from compound 14 of Scheme 2 and ... monoclonal antibody hBU12, which targets C19+ cells" (conjugate, chains of the INN, looked up)
VH: QVQLQESGPGLVKPSQTLSLTCTVSGGSISTSGMGVGWIRQHPGKGLEWIGHIWWDDDKRYNPALKSRVTISVDTSKNQFSLKLSSVTAADTAVYYCARMELWSYYFDYWGQGTLVTVSS
VL: EIVLTQSPATLSLSPGERATLSCSASSSVSYMHWYQQKPGQAPRLLIYDTSKLASGIPARFSGSGSGTDFTLTISSLEPEDVAVYYCFQGSVYPFTFGQGTKLEIK
modifications: vcPAB4-auristatin E drug-linker 14
- viable cells remaining at the bottom of the dose-response curve, L540cy parental ([1]; Table 4, parenthetic value): 44%
- IC50 for cell growth inhibition, L540cy parental [1, 4]: 5.08 µg/mL
- viable cells remaining at the bottom of the dose-response curve, Ramos (Ramos NHL cells; parenthetic value): 0%
- IC50 for cell growth inhibition, Ramos (Ramos NHL cells; [5]): 0.0007 µg/mL
- viable cells remaining at the bottom of the dose-response curve, RL (RL cells; parenthetic value): 21%
- IC50 for cell growth inhibition, RL (RL cells; [5]): 2.11 µg/mL
- viable cells remaining at the bottom of the dose-response curve, Karpas-299 (Karpas299 ALCL cells; parenthetic value): 10%
- IC50 for cell growth inhibition, Karpas-299 (Karpas299 ALCL cells; quaternized auristatin E ADC, 8 D+/Ab): 3.903 µg/mL
- viable cells remaining at the bottom of the dose-response curve, L428 (L428 MDR+ HL cells; Table 4, parenthetic value): 41%
- IC50 for cell growth inhibition, L428 (L428 MDR+ HL cells; [4]): 8.614 µg/mL
